Values of other authors in PubChem BioAssay AID1259409 (Chemical Carcinogenesis Research Information System (CCRIS), 2018).

Test system: rodent chemically induced tumor inhibition, incidence and multiplicity
Test: CCRIS tumor inhibitor studies
Settings: Route [Inhibitor]: ORAL, Species: RAT, Strain/Sex: F344/MALE; for outcome: Dose [Carcinogen]: 0.1% IN DRINKING WATER FOR 1 WK (STUDY DURATION: 32 WK)

## COc1cc(/C=C/C(=O)O[C@H]2CC[C@]34C[C@]35CC[C@]3(C)[C@@H]([C@H](C)CCC=C(C)C)CC[C@@]3(C)[C@@H]5CC[C@H]4C2(C)C)ccc1O
Carcinogen: 2,2'-DIHYDROXY-DI-N-PROPYLNITROSAMINE [621-64-7], Dose [Inhibitor]: 0.04% IN DIET FOR 30 WK BEGINNING 1 WK POST LAST CARCINOGEN DOSE (STUDY DURATION: 32 WK), Target Tissue: Type of Lesion: LUNG: CARCINOMA, Promoter: NONE
  outcome: 0/20 (0%), 0/20 (0%), 0%, not significant
Carcinogen: 2,2'-DIHYDROXY-DI-N-PROPYLNITROSAMINE [621-64-7], Dose [Inhibitor]: 0.2% IN DIET FOR 30 WK BEGINNING 1 WK POST LAST CARCINOGEN DOSE (STUDY DURATION: 32 WK), Target Tissue: Type of Lesion: LUNG: CARCINOMA, Promoter: NONE
  outcome: 0/20 (0%), 2/20 (10%), -100%, not significant
Carcinogen: 2,2'-DIHYDROXY-DI-N-PROPYLNITROSAMINE [621-64-7], Dose [Inhibitor]: 1% IN DIET FOR 30 WK BEGINNING 1 WK POST LAST CARCINOGEN DOSE (STUDY DURATION: 32 WK), Target Tissue: Type of Lesion: LUNG: CARCINOMA, Promoter: NONE
  outcome: 0/20 (0%), 10/20 (50%), -100%, p<0.001
Carcinogen: 2,2'-DIHYDROXY-DI-N-PROPYLNITROSAMINE [621-64-7], N-ETHYL-N-HYDROXYETHYLNIATROSAMINE [13147-25-6], 3,2'-DIMETHYL-4-AMINO, Carcinogen: 2,2'-DIHYDROXY-DI-N-PROPYLNITROSAMINE [621-64-7], N-ETHYL-N-HYDROXYETHYLNIATROSAMINE [13147-25-6], 3,2'-DIMETHYL-4-AMINO, Dose [Inhibitor]: 1% IN DIET FOR 32 WK BEGINNING 1 WK POST LAST CARCINOGEN DOSE (STUDY DURATION: 32 WK), Target Tissue: Type of Lesion: LIVER: ADENOMA, Dose [Carcinogen]: 1000 MG/KG BW DHPN IP 2X/3 WK, 1500 MG/KG BW EHEN IP 2X/3 WK, 75 MG/KG BW DMAB SC 3X/3 WK;, Dose [Carcinogen]: 1000 MG/KG BW DHPN IP 2X/3 WK, 1500 MG/KG BW EHEN IP 2X/3 WK, 75 MG/KG BW DMAB SC 3X/3 WK;, Promoter: NONE
  tumour outcome (control, treated, inhibition, significance): 9/14 (64%), 5/13 (38%), 41%, p<0.05
Carcinogen: 2,2'-DIHYDROXY-DI-N-PROPYLNITROSAMINE [621-64-7], N-ETHYL-N-HYDROXYETHYLNIATROSAMINE [13147-25-6], 3,2'-DIMETHYL-4-AMINO, Carcinogen: 2,2'-DIHYDROXY-DI-N-PROPYLNITROSAMINE [621-64-7], N-ETHYL-N-HYDROXYETHYLNIATROSAMINE [13147-25-6], 3,2'-DIMETHYL-4-AMINO, Dose [Inhibitor]: 1% IN DIET FOR 32 WK BEGINNING 1 WK POST LAST CARCINOGEN DOSE (STUDY DURATION: 32 WK), Target Tissue: Type of Lesion: LIVER: CARCINOMA, Dose [Carcinogen]: 1000 MG/KG BW DHPN IP 2X/3 WK, 1500 MG/KG BW EHEN IP 2X/3 WK, 75 MG/KG BW DMAB SC 3X/3 WK;, Dose [Carcinogen]: 1000 MG/KG BW DHPN IP 2X/3 WK, 1500 MG/KG BW EHEN IP 2X/3 WK, 75 MG/KG BW DMAB SC 3X/3 WK;, Promoter: NONE
  tumour outcome (control, treated, inhibition, significance): 6/14 (43%), 3/13 (23%), 47%, not significant
Carcinogen: 2,2'-DIHYDROXY-DI-N-PROPYLNITROSAMINE [621-64-7], N-ETHYL-N-HYDROXYETHYLNIATROSAMINE [13147-25-6], 3,2'-DIMETHYL-4-AMINO, Carcinogen: 2,2'-DIHYDROXY-DI-N-PROPYLNITROSAMINE [621-64-7], N-ETHYL-N-HYDROXYETHYLNIATROSAMINE [13147-25-6], 3,2'-DIMETHYL-4-AMINO, Dose [Inhibitor]: 1% IN DIET FOR 32 WK BEGINNING 1 WK POST LAST CARCINOGEN DOSE (STUDY DURATION: 32 WK), Target Tissue: Type of Lesion: LUNG: ADENOMA, Dose [Carcinogen]: 1000 MG/KG BW DHPN IP 2X/3 WK, 1500 MG/KG BW EHEN IP 2X/3 WK, 75 MG/KG BW DMAB SC 3X/3 WK;, Dose [Carcinogen]: 1000 MG/KG BW DHPN IP 2X/3 WK, 1500 MG/KG BW EHEN IP 2X/3 WK, 75 MG/KG BW DMAB SC 3X/3 WK;, Promoter: NONE
  tumour outcome (control, treated, inhibition, significance): 7/14 (50%), 11/13 (85%), -70%, not significant
Carcinogen: 2,2'-DIHYDROXY-DI-N-PROPYLNITROSAMINE [621-64-7], N-ETHYL-N-HYDROXYETHYLNIATROSAMINE [13147-25-6], 3,2'-DIMETHYL-4-AMINO, Carcinogen: 2,2'-DIHYDROXY-DI-N-PROPYLNITROSAMINE [621-64-7], N-ETHYL-N-HYDROXYETHYLNIATROSAMINE [13147-25-6], 3,2'-DIMETHYL-4-AMINO, Dose [Inhibitor]: 1% IN DIET FOR 32 WK BEGINNING 1 WK POST LAST CARCINOGEN DOSE (STUDY DURATION: 32 WK), Target Tissue: Type of Lesion: LUNG: CARCINOMA, Dose [Carcinogen]: 1000 MG/KG BW DHPN IP 2X/3 WK, 1500 MG/KG BW EHEN IP 2X/3 WK, 75 MG/KG BW DMAB SC 3X/3 WK;, Dose [Carcinogen]: 1000 MG/KG BW DHPN IP 2X/3 WK, 1500 MG/KG BW EHEN IP 2X/3 WK, 75 MG/KG BW DMAB SC 3X/3 WK;, Promoter: NONE
  tumour outcome (control, treated, inhibition, significance): 1/14 (8%), 7/13 (54%), -575%, p<0.05
Carcinogen: 2,2'-DIHYDROXY-DI-N-PROPYLNITROSAMINE, 53609-64-6, N-ETHYL-N-HYDROXYETHYL- NITROSAMINE, 13147-25-6, 3,2'-DIMETHYL-4-, Carcinogen: 2,2'-DIHYDROXY-DI-N-PROPYLNITROSAMINE, 53609-64-6, N-ETHYL-N-HYDROXYETHYL- NITROSAMINE, 13147-25-6, 3,2'-DIMETHYL-4-, Dose [Inhibitor]: 0, 1% IN DIET BEGINNING 1 WK POST LAST CARCINOGEN DOSE AND CONTINUING FOR 32 WK (STUDY DURATION: 36 WK), Target Tissue: Type of Lesion: LARGE INTESTINE: ADENOMA, Dose [Carcinogen]: 1000 MG/KG IP DHPN 2X, 1500 MG/KG GAV EHEN 2X AND 75 MG/KG SC DMAB 3X GIVEN OVER THE INITIAL 3 WK PERIOD AT 3-4 D INTERV, Promoter: NONE USED
  tumour outcome (control, treated, inhibition, significance): 7/14 (50%), 5/13 (38%), 24%, not significant
Carcinogen: 2,2'-DIHYDROXY-DI-N-PROPYLNITROSAMINE, 53609-64-6, N-ETHYL-N-HYDROXYETHYL- NITROSAMINE, 13147-25-6, 3,2'-DIMETHYL-4-, Carcinogen: 2,2'-DIHYDROXY-DI-N-PROPYLNITROSAMINE, 53609-64-6, N-ETHYL-N-HYDROXYETHYL- NITROSAMINE, 13147-25-6, 3,2'-DIMETHYL-4-, Dose [Inhibitor]: 0, 1% IN DIET BEGINNING 1 WK POST LAST CARCINOGEN DOSE AND CONTINUING FOR 32 WK (STUDY DURATION: 36 WK), Target Tissue: Type of Lesion: LARGE INTESTINE: CARCINOMA, Dose [Carcinogen]: 1000 MG/KG/ IP DHPN 2X, 1500 MG/KG GAV EHEN 2X 75 MG/KG SC DMAB 3X GIVEN OVER THE INITIAL 3 WK PERIOD AT 3-4 D INTERVALS, Promoter: NONE USED
  tumour outcome (control, treated, inhibition, significance): 3/14 (21%), 6/13 (46%), -119%, not calculated
